In experiment [1] the test system is MDA-MB-231. The experiment in a line: Induction of apoptosis in human MDA-MB-231 cells assessed as late apoptotic cells at 5 uM by annexin V/propidium iodide staining-based flow cytometry analysis (reference value: 2.34 %). It counts as functional. (In general: Flow cytometry measures light scatter and fluorescence of single cells or particles in a stream.)
For experiment [2], the system named is MDA-MB-231. The experiment in a line: Induction of apoptosis in human MDA-MB-231 cells assessed as late apoptotic cells at 20 uM by annexin V/propidium iodide staining-based flow cytometry analysis (reference value: 2.34 %). The format is functional.
Experiment [3] has as its system MDA-MB-231. Description: Induction of apoptosis in human MDA-MB-231 cells assessed as upregulation of BAX at 5 to 20 uM by Western blot analysis. The format is functional, cell-based. Conditions: dose 5-20 µM. (In general: Immunoblotting shows a protein as a band on a membrane.)
Experiment [4] has as its system MDA-MB-231. Description: Induction of apoptosis in human MDA-MB-231 cells by annexin V/propidium iodide staining-based flow cytometry analysis. The format is functional, cell-based. Conditions: dose 5-20 µM.
The subject of experiment [5] is MDA-MB-231. Description: Induction of apoptosis in human MDA-MB-231 cells assessed as live cells at 5 uM by annexin V/propidium iodide staining-based flow cytometry analysis (reference value: 96.7 %). The format is functional.
Experiment [6] has as its system MDA-MB-231. The experiment in a line: Induction of apoptosis in human MDA-MB-231 cells assessed as live cells at 10 uM by annexin V/propidium iodide staining-based flow cytometry analysis (reference value: 96.7 %). The format is functional.
In experiment [7] the target is T1, Serine/threonine-protein kinase mTOR (Homo sapiens, UniProt P42345). The experiment in a line: Inhibition of mTOR (unknown origin).
Experiment [8] concerns MDA-MB-231. Description: Inhibition of cell migration in human MDA-MB-231 cells after 48 hrs by wound healing assay. The format is functional, cell-based. Conditions: dose 5-20 µM.
Experiment [9] deals with MDA-MB-231. Description: Induction of apoptosis in human MDA-MB-231 cells assessed as early apoptotic cells at 5 uM by annexin V/propidium iodide staining-based flow cytometry analysis (reference value: 0.69 %). The format is functional.
In experiment [10] the test system is MDA-MB-231. The experiment in a line: Inhibition of cell migration in human MDA-MB-231 cells assessed as decrease in MMP-2 expression at 5 to 20 uM after 48 hrs by Western blot analysis. It counts as functional, cell-based. As to conditions: dose 5-20 µM.
The next experiment relates to MDA-MB-436. The experiment in a line: Antiproliferative activity against human MDA-MB-436 cells measured after 48 hrs. It counts as functional, cell-based. As to conditions: MDA-MB-436, 48 h.
In experiment [11] the test system is MDA-MB-231. Description: Induction of apoptosis in human MDA-MB-231 cells assessed as increase in caspase 3 cleavage at 5 to 20 uM by Western blot analysis. Conditions: dose 5-20 µM. The format is functional, cell-based.
The subject of experiment [12] is MDA-MB-231. Description: Induction of apoptosis in human MDA-MB-231 cells assessed as necrotic cells at 20 uM by annexin V/propidium iodide staining-based flow cytometry analysis (reference value: 0.099 %). It counts as functional.
Experiment [13] concerns MDA-MB-231. Description: Induction of apoptosis in human MDA-MB-231 cells assessed as live cells at 20 uM by annexin V/propidium iodide staining-based flow cytometry analysis (reference value: 96.7 %). The format is functional.
Experiment [14] concerns MDA-MB-231. The experiment in a line: Antiproliferative activity against human MDA-MB-231 cells assessed as inhibition of clone formation at 2.5 to 10 uM. The format is functional, cell-based. Conditions: dose 2.5-10 µM.
Experiment [15] has as its target T2, Protein deacetylase HDAC6 (Homo sapiens, UniProt Q9UBN7).
T2 sequence (Q9UBN7 whole entry): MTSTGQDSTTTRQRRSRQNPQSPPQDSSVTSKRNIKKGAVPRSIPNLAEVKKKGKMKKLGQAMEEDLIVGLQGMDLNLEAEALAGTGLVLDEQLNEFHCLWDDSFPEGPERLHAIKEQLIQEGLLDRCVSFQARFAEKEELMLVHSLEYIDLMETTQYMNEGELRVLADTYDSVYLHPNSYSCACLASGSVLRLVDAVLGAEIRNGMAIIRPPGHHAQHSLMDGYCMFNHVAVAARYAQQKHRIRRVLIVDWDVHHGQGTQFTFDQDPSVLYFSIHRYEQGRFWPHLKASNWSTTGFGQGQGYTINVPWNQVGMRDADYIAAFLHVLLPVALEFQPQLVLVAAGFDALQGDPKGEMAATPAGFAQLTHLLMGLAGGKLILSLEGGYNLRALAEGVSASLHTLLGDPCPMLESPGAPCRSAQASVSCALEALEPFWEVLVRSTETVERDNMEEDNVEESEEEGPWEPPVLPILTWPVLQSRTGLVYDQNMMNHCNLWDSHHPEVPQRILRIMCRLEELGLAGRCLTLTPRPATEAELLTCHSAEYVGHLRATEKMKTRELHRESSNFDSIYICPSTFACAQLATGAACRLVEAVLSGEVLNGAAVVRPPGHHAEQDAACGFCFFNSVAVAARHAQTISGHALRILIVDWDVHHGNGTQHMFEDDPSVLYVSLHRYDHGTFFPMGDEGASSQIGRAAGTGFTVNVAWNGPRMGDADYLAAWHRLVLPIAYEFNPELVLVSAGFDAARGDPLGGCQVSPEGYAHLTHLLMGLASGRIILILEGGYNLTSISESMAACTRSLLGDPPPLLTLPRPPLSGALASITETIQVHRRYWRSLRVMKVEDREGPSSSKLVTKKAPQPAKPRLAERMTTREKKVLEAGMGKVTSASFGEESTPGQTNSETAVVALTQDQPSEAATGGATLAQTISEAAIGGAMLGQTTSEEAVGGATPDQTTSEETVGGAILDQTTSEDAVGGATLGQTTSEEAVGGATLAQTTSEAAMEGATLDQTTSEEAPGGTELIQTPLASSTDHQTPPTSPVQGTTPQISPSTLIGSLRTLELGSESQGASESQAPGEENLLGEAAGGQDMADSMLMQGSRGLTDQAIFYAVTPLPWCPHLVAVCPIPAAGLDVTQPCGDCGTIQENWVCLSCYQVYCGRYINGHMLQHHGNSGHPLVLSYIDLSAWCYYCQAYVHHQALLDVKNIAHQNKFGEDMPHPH
Description: Inhibition of HDAC6 (unknown origin).

Experiment [16] deals with T1, Serine/threonine-protein kinase mTOR. The experiment in a line: Inhibition of mTOR (unknown origin) at 0.5 uM relative to control.
The target in another experiment is Histone deacetylase 3 (Homo sapiens, UniProt O15379). The experiment in a line: Binding affinity to HDAC3 in human MDA-MB-231 cells assessed as increase in thermal stability at 10 uM measured at 6 hrs by CETSA. The format is cell-based.
Experiment [17] has as its system MDA-MB-231. The experiment in a line: Induction of apoptosis in human MDA-MB-231 cells assessed as necrotic cells at 10 uM by annexin V/propidium iodide staining-based flow cytometry analysis (reference value: 0.099 %). It counts as functional.
Experiment [18] relates to MDA-MB-231. Description: Induction of apoptosis in human MDA-MB-231 cells assessed as early apoptotic cells at 20 uM by annexin V/propidium iodide staining-based flow cytometry analysis (reference value: 0.69 %). The format is functional.

Active and inactive are the calls of the source. No cut-off for these calls is given here.

Chain of Histone deacetylase 3 (O15379 whole entry): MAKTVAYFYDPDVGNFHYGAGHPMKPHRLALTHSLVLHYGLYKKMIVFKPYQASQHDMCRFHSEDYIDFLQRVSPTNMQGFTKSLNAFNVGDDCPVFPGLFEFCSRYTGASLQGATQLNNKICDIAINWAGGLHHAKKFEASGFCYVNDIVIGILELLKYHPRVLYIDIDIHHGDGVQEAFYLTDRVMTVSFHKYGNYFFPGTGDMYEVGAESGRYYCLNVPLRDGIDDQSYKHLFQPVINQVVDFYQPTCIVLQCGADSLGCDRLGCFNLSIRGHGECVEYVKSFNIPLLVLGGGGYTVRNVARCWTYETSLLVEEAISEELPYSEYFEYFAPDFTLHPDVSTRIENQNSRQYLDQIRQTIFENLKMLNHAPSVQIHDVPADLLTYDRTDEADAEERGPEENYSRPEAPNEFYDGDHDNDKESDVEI

As to `CN1CCN(c2nc(-c3ccc(C(=O)NO)cc3)nc3cc(Cl)ccc23)CC1`, the Activity was 6.39% in the experiment on MDA-MB-231 [1]; 34.3% in the experiment with MDA-MB-231 [2]; “Dose-Dependent Effect” with MDA-MB-231 [4]; 88.1% in the experiment on MDA-MB-231 [5]; 69.1% in the experiment with MDA-MB-231 [6]; 4.84% with MDA-MB-231 [9]. The Activity in the experiment on MDA-MB-231 [12] was 0.46%; in the experiment with MDA-MB-231 [13] it was 53.9%; in the experiment on MDA-MB-231 [17], 0.49%; with MDA-MB-231 [18] it was 11.3%. For the same compound, the outcome with MDA-MB-231 [3] and in the experiment on MDA-MB-231 [11] was Active. Moreover, the IC50 (as a rule, the concentration that gives 50% inhibition) in experiment [7] was found to be 134 nM; with MDA-MB-436, 10600 nM; in experiment [15] it was 56 nM. Also, the inhibition entry with MDA-MB-231 [8], with MDA-MB-231 [10] and in the experiment with MDA-MB-231 [14] was “Active” in each case. For the same compound, in experiment [16], the inhibition (usually the relative decrease from the control value, in per cent) amounted to 91.4%. Moreover, at Histone deacetylase 3, the result was inactive.

Source of the values: ChEMBL document CHEMBL4811304, “Design, synthesis and biological evaluation of dual mTOR/HDAC6 inhibitors in MDA-MB-231 cells” (Bioorg Med Chem Lett, 2021).
